Results on nine compounds are retold here after patent publication US9034874B2, “Carbamate/urea derivatives” (NOVARTIS AG, priority 2012, dated 2015).

For data set [1], the target named is T1, human H3 receptors (Homo sapiens (Human), UniProt Q9Y5N1). As to the kind of experiment: Affinity assessment: displacement of [3H]-N-α-Methylhistamine binding to membranes. As to conditions: membranes containing human H3 receptors, radioligand [3H]-N-α-Methylhistamine. The procedure: The affinity of compounds of the invention to the H3 receptor can be assessed by measuring displacement of binding of the radioligand [3H]-N-α-Methylhistamine (PerkinElmer, #NET1027250UC) to membranes containing human H3 receptors (PerkinElmer, #ES-392-M400UA; GenBank: NM_007232.2; Hill S J et al, International Union of Pharmacology XIII. Classification of histamine receptors, Pharmacol Rev, 49(3), 253-278, 1997).
2. Compound serial dilution: Dilution was performed by BioTek Precision on compound dilution plate. Compound concentrations start at 5 or 10 μM, 10 point dose titrations with 3- or 5-fold serial dilutions.
3. Preparation of 2× membrane solution (25 ml): 1.25 ml human Histamine H3 receptor stock, 23.75 ml assay buffer.
4. Preparation of 2× solution of [3H]-N-α-methylhistamine (25 ml): 4.27 μl [3H]-N-α-methylhistamine stock, 25 ml assay buffer.
5. Assemble binding reaction: (a) transfer 1 μl of compound solution, 1 μl 100% DMSO and 1 μl 1 M (R)(−)-α-Methylhistamine (Sigma, #H128) to the reaction plate at room temperature, (b) transfer 50 μl of 2× protein solution to reaction plate, (c) transfer 49 μl of 2× radioligand solution to reaction plate (Corning® 96 well EIA/RIA plate; Sigma, #CLS3797).
6. Cover the reaction plate with a TopSeal™-A film (Perkin Elmer, #6005185) and incubate at 28° C. for 120 min. Equilibrate Zeba Spin Desalting Plates (Thermo Scientific, #89808) to room temperature for 120 min.
7. Remove the sealing material from the bottom of the filtration plate. Place the plate on a wash plate. Centrifuge at 1000 g for 2 min to remove the storage buffer at room temperature.
8. Transfer 70 μl binding reaction from reaction plate into filtration plates. Place the filtration plates on top of collection plate. Centrifuge the plate assembly at 1000 g for 2 min to collect the protein with bound radioligand. Add 200 μl of Microscint-40 (PerkinElmer, #6013641-1L) to each well of the collection plate. Cover the plates with TopSeal™-A film.
9. Read the plates on Wallac Microbeta Trilux 2450, Instrument settings: counting mode: CPM, counting time: 2 min.
10. Data analysis: GraphPad Prism: log (compound concentration) vs. response; variable slope. The Ki is calculated based on Chang and Prusoff: Ki=IC50/{1+([radioligand]/Kd)}

Data set [2] addresses T1, human H3 receptors. The experiment in a line: Potency assessment: blockade of (R)-alpha-methylhistamine-mediated cAMP production (LANCE Ultra cAMP kit). Type of data set: cell-based. As to conditions: CHO cells expressing human H3 receptors. The procedure:
The potency of compounds of the invention as H3 receptor antagonists can be assessed by measuring the blockade of (R)-alpha-methylhistamine-mediated cAMP production utilizing a LANCE Ultra cAMP kit (PE #TRF0263) in CHO cells expressing human H3 receptors (GenBank: BC096840; Strausberg R L et al, Proc. Natl. Acad. Sci. U.S.A. 99(26), 16899-16903; 2002).
2. Preparation of assay plate: Different concentrations of the compounds of the invention (0.01-1000 nM), H3 positive controls and cAMP calibration standards; […] Forskolin (CALBIOCHEM #344270); 5 μM (R)-alpha-methylhistamine (H3 receptor agonist); 1% DMSO (SIGMA #D2650); total volume: 95 nl.
3. Preparation of the cell solution: Collect cells with stimulation buffer, final density: 100,000 cells/ml.
4. Reaction: (a) transfer 10 μl of cell solution to assay plate, (b) centrifuge at 600 rpm for 3 min and incubate 50 min at room temperature, (c) add 5 μL 4× Eu-cAMP tracer solution (60 μl Eu-cAMP tracer stock solution+2.94 ml cAMP detection buffer) and 5 μL 4× ULight™-anti-cAMP solution (20 μl […]+2.98 ml cAMP detection buffer) to assay plate.
5. Reading plate on EnVision: flash energy: 100%; excitation filter: 111 UV2 320; emission filter: 203 (Eu 615) and 205 (APC 665); number of laser flashes: 20; window: 100 μs; laser mirror module: 445 or 446; laser cycle: 16,600 μs.
6. Data analysis by GraphPad Prism: log (compound concentration) vs. response; variable slope.

A short description of data set [3]: Solubility of solid forms in aqueous media. It is filed as physicochemical.

Like-named read-outs stand apart in the source and are kept apart here.

T1 sequence (Q9Y5N1 whole entry): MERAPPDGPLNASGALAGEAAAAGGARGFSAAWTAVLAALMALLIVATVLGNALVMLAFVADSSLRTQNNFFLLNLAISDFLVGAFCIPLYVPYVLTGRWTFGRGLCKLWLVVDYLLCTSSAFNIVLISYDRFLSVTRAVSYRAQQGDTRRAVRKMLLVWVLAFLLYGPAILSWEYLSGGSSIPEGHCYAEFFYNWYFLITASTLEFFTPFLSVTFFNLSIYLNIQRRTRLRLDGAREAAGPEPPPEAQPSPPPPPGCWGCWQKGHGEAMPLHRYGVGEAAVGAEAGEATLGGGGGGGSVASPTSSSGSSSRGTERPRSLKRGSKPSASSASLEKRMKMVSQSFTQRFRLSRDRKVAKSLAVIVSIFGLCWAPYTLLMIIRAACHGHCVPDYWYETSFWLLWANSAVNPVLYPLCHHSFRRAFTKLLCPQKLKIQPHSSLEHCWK

On to `O=C(OC1CCN(c2ccc(=O)[nH]n2)CC1)N1CCN(C2CC2)CC1` [Example 1.4, 1-(6-oxo-1,6-dihydropyridazin-3-yl)piperidin-4-yl 4-cyclopropylpiperazine-1-carboxylate], for which the results for the Ki in data set [1] and in data set [2] were 25 nM and 2.3 nM, respectively.

With `Cn1nc(N2CCC(OC(=O)N3CCN(C4CCC4)CC3)CC2)ccc1=O` [Example 1.5, 1-(1-methyl-6-oxo-1,6-dihydropyridazin-3-yl)piperidin-4-yl 4-cyclobutylpiperazine-1-carboxylate], the figures for the Ki in data set [1] and in data set [2] were 25 nM and 1.1 nM, respectively.

Take `CCn1nc(N2CCC(OC(=O)N3CCN(C(C)C)CC3)CC2)ccc1=O` [Example 1.6, 1-(1-ethyl-6-oxo-1,6-dihydropyridazin-3-yl)piperidin-4-yl 4-isopropylpiperazine-1-carboxylate]: the Ki was determined as 44 nM in data set [1] and 2.9 nM in data set [2].

As for `CC(C)N1CCN(C(=O)OC2CCN(c3ccn(C)c(=O)c3)CC2)CC1` [Example 2.1, 1-(1-methyl-2-oxo-1,2-dihydropyridin-4-yl)piperidin-4-yl 4-isopropylpiperazine-1-carboxylate], the Ki in data set [1] came to 20 nM; in data set [2] it was 3.1 nM.

For the compound `O=C(OC1CCN(c2cc[nH]c(=O)c2)CC1)N1CCN(C2CCC2)CC1` [Example 2.2, 1-(2-oxo-1,2-dihydropyridin-4-yl)piperidin-4-yl 4-cyclobutylpiperazine-1-carboxylate], the Ki in data set [1] was 25 nM; in data set [2], 0.5 nM.

Take `CC(C)N1CCN(C(=O)OC2CCN(c3cc[nH]c(=O)c3)CC2)CC1` [Example 2.3, 1-(2-oxo-1,2-dihydropyridin-4-yl)piperidin-4-yl 4-isopropylpiperazine-1-carboxylate]: the Ki came to 12 nM in data set [1] and 0.9 nM in data set [2].

For `CC(C)N1CCN(C(=O)OC2CCN(c3ccc(=O)[nH]c3)CC2)CC1` [Example 3.1, 1-(6-oxo-1,6-dihydropyridin-3-yl)piperidin-4-yl 4-isopropylpiperazine-1-carboxylate], the Ki was 1.2 nM in data set [1] and 1.6 nM in data set [2].

As to `Cn1nc(N2CCC(OC(=O)N3CCN(C4CCC4)CC3)CC2)ccc1=O` [Form A of the free from, 1-(1-methyl-6-oxo-1,6-dihydropyridazin-3-yl)piperidin-4-yl 4-cyclobutylpiperazine-1-carboxylate], the “solubility in aqueous media” value in data set [3] (across a pH range from about 1-8) is “good solubility”.

For `Cn1nc(N2CCC(OC(=O)N3CCN(C4CCC4)CC3)CC2)ccc1=O` [Form B of the free from, 1-(1-methyl-6-oxo-1,6-dihydropyridazin-3-yl)piperidin-4-yl 4-cyclobutylpiperazine-1-carboxylate], the “solubility in aqueous media” value in data set [3] is “good solubility”.
